The values that follow come from patent US7199286B2, “Plant-derived novel pathogen and SAR-induction chemical induced promoters, and fragments thereof” (Syngenta Participations AG, priority 1999, dated 2007).

For this experiment, the system named is NI16 promoter fragment 544 bp. Nature of the experiment: GUS florescence assay of promoter::GUS plants after SA application, NI16 544 bp fragment. In kind it is in vivo, Arabidopsis. The note with it: 5 mM SA spray. The source says:
A binary promoter::reporter plasmid (pNOV2374) for Arabidopsis transformation was constructed. The regulatory/promoter sequence was fused to the GUS reporter gene (Jefferson et al. (1987) EMBO J 6: 3901-3907) by recombination using […] Technology according to the manufacturer's protocol as described in the Instruction Manual (LifeTechnologies, Rockville, Md.). The construct was then transformed into Agrobacterium tumefaciens strains by electroporation. pNOV2374 is a binary vector with a VS1 origin of replication, a copy of the Agrobacterium virg gene in the backbone, and a Basta® resistance selectable marker cassette between the left and right border sequences of the T-DNA. The Basta® selectable marker cassette comprises the Agrobacterium tumefaciens manopine synthase promoter (AtMas) (Barker et al., Plant Mol. Biol. 2, 335-350 (1983)) operably linked to the gene encoding Basta® resistance (i.e., the “BAR” gene, phosphinothricin acetyl transferase) (White et al., Nucl Acids Res 18: 1062 (1990)) and the 35S terminator. The AtMas promoter, the BAR coding sequence, and the 35S terminator are located at nt 4211 to nt 4679, nt 4680 to nt 5228, and nt 5263 to nt 5488, respectively, of pNOV2374. The vector contains […] recombination components, which were introduced into the binary vector backbone by ligating a blunt-ended cassette containing attR sites, ccdB, and a cholramphenicol resistance marker using the […] Vector Conversion System (LifeTechnologies, Rockville, Md.). The […] cassette was located between nt 126 and 1818 of pNOV2374. The promoter cassettes were inserted through an LR recombination reaction whereby the DNA sequence of pNOV2374 between nt 126 and nt 1818 were removed and replaced with the promoter of interest flanked by att sequences. […] The GIG gene (SEQ ID NO:29) contains the ST-LS1 intron from Solanum tuberosum at nt 385 to nt 576 of GUS (obtained from Dr. Stanton […], Purdue University, and described in Narasimhulu, et al. (1996) Plant Cell 8: 873-886.). […] The treatment was applied as a fine mist to the leaves. Leaf tissue was harvested from plants for the β-glucuronidase (GUS) florescence assay prior to SA application (T0) and at various time intervals after application. For quantitative analysis of promoter activity following induction treatments or in various Arabidopsis tissues and organs, GUS expression is measured florometrically. Tissue samples were harvested and ground in ice cold GUS extraction buffer (50 mM Na2HPO4 pH 7.0, 5 mM DTT, 1 mM Na2EDTA, 0.1% TritonX100, 0.1% sarcosyl). Ground samples were spun in a microfuge at 10,000 rpm for 15 minutes at 4° C. Following centrifugation, the supernatant was removed for the GUS assay and for a protein concentration determination. To measure GUS activity, the plant extract was assayed in GUS assay buffer (50 mM Na2HPO4 pH 7.0, 5 mM DTT, 1 mM Na2EDTA, 0.1% TritonX100, 0.1% sarcosyl, 1 mM 4-Methylumbelliferyl-beta-D-glucuronic acid dihydrate (MUG)), pre-warmed to 37° C. Reactions were incubated, and 100 uL aliquots were removed at 10 minute intervals over 30 minutes to stop the reaction by adding the 100 uL aliquots to tubes containing 900 uL of 2% Na2CO3. The stopped reactions were then read on a Tecan Spectroflourometer at 365 nm excitation and 455 emission wavelengths. Protein concentrations were determined using the BCA assay following the manufacturer's protocol. GUS activity is expressed as pmol MU/mg protein/min.

As for `O=C(O)c1ccccc1O` [SA, salicylic acid], the “GUS Activity Induced by SA” value (2 h) turned out to be 52.2 pmol/mg protein/min, the “GUS Activity Induced by SA” value (4 h) was determined as 72.5 pmol/mg protein/min, the “GUS Activity Induced by SA” value (8 h) stood at 194.9 pmol/mg protein/min and the “GUS Activity Induced by SA” value (24 h) was determined as 205.4 pmol/mg protein/min. In addition, the “GUS activity Fold-change relative to T0 (uninduced)” value is, setting by setting: (2 h) 4.3 fold; (4 h) 6.0 fold; (8 h) 16.2 fold; (24 h) 17.0 fold.
